According to US11203600B2 (Denali Therapeutics Inc., priority 2017, dated 2021):

Molecular target: GST-hRIPK1 (8-327) (Homo sapiens (Human), UniProt Q13546)
Assay: Fluorescent Polarization Binding (FP Binding) assay, RIPK1
Settings: mean of at least two independent experiments
Procedure, shortened: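 Binding by fluorescence polarisation at RT: 10 nM baculovirus-expressed GST-hRIPK1 (8-327) and 5 nM fluorescent ligand, 30 min, in 50 mM HEPES pH 7.5, 50 mM MgCl2, 0.02% CHAPS, 1% DMSO. FP read at ex 531/em 595 nm. IC50 from normalised percent inhibition, mean of ≥2 experiments.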

[1] = 10 nM GST-hRIPK1 (8-327), 5 nM fluorescent-labeled ligand, RT, 30 min

GST-hRIPK1 (8-327), sequence (Q13546 8-327): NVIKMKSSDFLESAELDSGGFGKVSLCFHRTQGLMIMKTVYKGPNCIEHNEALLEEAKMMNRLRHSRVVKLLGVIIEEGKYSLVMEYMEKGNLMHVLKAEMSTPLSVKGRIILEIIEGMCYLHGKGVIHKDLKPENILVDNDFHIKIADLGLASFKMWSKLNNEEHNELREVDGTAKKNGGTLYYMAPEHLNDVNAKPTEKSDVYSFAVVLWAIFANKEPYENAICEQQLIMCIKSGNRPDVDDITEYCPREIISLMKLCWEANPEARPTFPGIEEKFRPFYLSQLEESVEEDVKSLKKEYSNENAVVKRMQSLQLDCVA

| IC50 (GST-hRIPK1 (8-327)) [nM] | Structure (SMILES) | IC50 [1] [nM] |
| --- | --- | --- |
| 100 to 1000 | CC(C)(C(=O)N1CCOc2c(C#N)cncc2C1)[C@H]1C[C@H](Cn2nccn2)C1 [Example 290, trans-4-[2-methyl-2-[3-(triazol-2-ylmethyl)cyclobutyl]propanoyl]-3,5-dihydro-2H-pyrido [3,4-f][1,4]oxazepine-9-carbonitrile] | – |
| – | CC(C)(C)C(=O)N1CCCc2ccccc2C1 [Example 3, 2,2-dimethyl-1-(1,3,4,5-tetrahydro-2-benzazepin-2-yl)propan-1-one] | 100 to 1000 |
| – | COc1nc(N2CCC(F)(C(=O)N3CCOc4c(C#N)cncc4C3)CC2)ncc1Cl [Example 128, 4-[1-(5-chloro-4-methoxy-pyrimidin-2-yl)-4-fluoro-piperidine-4-carbonyl]-3,5-dihydro-2H-pyrido[3,4-f][1,4]oxazepine-9-carbonitrile] | 0.1 to 100 |
